According to the NIST ThermoML archive (doi:10.1016/j.jct.2009.06.011):
Numbers after ± are expanded uncertainties.

Test: activity coefficient (dimensionless); of the first substance listed, at infinite dilution; xn = mol fraction of the nth substance listed
Details: 101 kPa, Liquid, Chromatography, x1 = 0

Compound: C=CCCCCC [1-heptene] + CCCC[n+]1ccc(C)cc1.O=S(=O)([N-]S(=O)(=O)C(F)(F)F)C(F)(F)F
- activity coefficient (298.15 K): 9.97 ± 0.68
- activity coefficient (308.15 K): 9.56 ± 0.65
- activity coefficient (318.15 K): 9.17 ± 0.63
- activity coefficient (328.15 K): 8.82 ± 0.6
- activity coefficient (338.15 K): 8.51 ± 0.58
- activity coefficient (348.15 K): 8.24 ± 0.56
- activity coefficient (358.15 K): 7.99 ± 0.54
- activity coefficient (368.15 K): 7.76 ± 0.53

Compound: C1CCCCC1 [cyclohexane] + CCCC[n+]1ccc(C)cc1.O=S(=O)([N-]S(=O)(=O)C(F)(F)F)C(F)(F)F
- activity coefficient (298.15 K): 8.93 ± 0.61
- activity coefficient (308.15 K): 8.34 ± 0.57
- activity coefficient (318.15 K): 7.76 ± 0.53
- activity coefficient (328.15 K): 7.31 ± 0.5
- activity coefficient (338.15 K): 6.96 ± 0.47
- activity coefficient (348.15 K): 6.54 ± 0.45
- activity coefficient (358.15 K): 6.23 ± 0.42
- activity coefficient (368.15 K): 5.94 ± 0.4

Compound: CCCCCCCC [octane] + CCCC[n+]1ccc(C)cc1.O=S(=O)([N-]S(=O)(=O)C(F)(F)F)C(F)(F)F
- activity coefficient (298.15 K): 27.9 ± 1.9
- activity coefficient (308.15 K): 25.8 ± 1.8
- activity coefficient (318.15 K): 23.7 ± 1.6
- activity coefficient (328.15 K): 22.1 ± 1.5
- activity coefficient (338.15 K): 20.7 ± 1.4
- activity coefficient (348.15 K): 19.3 ± 1.3
- activity coefficient (358.15 K): 18.1 ± 1.2
- activity coefficient (368.15 K): 17.2 ± 1.2

Compound: C=CCCCCCC [oct-1-ene] + CCCC[n+]1ccc(C)cc1.O=S(=O)([N-]S(=O)(=O)C(F)(F)F)C(F)(F)F
- activity coefficient (298.15 K): 13.8 ± 0.9
- activity coefficient (308.15 K): 13 ± 0.9
- activity coefficient (318.15 K): 12.4 ± 0.8
- activity coefficient (328.15 K): 11.8 ± 0.8
- activity coefficient (338.15 K): 11.3 ± 0.8
- activity coefficient (348.15 K): 10.9 ± 0.7
- activity coefficient (358.15 K): 10.4 ± 0.7
- activity coefficient (368.15 K): 10.1 ± 0.7

Compound: Cc1ccccc1 [toluene] + CCCC[n+]1ccc(C)cc1.O=S(=O)([N-]S(=O)(=O)C(F)(F)F)C(F)(F)F
- activity coefficient (318.15 K): 0.973 ± 0.061
- activity coefficient (328.15 K): 1 ± 0.063
- activity coefficient (338.15 K): 1.02 ± 0.064
- activity coefficient (348.15 K): 1.05 ± 0.066
- activity coefficient (358.15 K): 1.07 ± 0.067
- activity coefficient (368.15 K): 1.09 ± 0.069

Compound: Cc1cccc(C)c1 [1,3-dimethylbenzene] + CCCC[n+]1ccc(C)cc1.O=S(=O)([N-]S(=O)(=O)C(F)(F)F)C(F)(F)F
- activity coefficient (318.15 K): 1.35 ± 0.09
- activity coefficient (328.15 K): 1.38 ± 0.09
- activity coefficient (338.15 K): 1.42 ± 0.09
- activity coefficient (348.15 K): 1.45 ± 0.1
- activity coefficient (358.15 K): 1.48 ± 0.1
- activity coefficient (368.15 K): 1.51 ± 0.1

Compound: C1CCOC1 [tetrahydrofuran] + CCCC[n+]1ccc(C)cc1.O=S(=O)([N-]S(=O)(=O)C(F)(F)F)C(F)(F)F
- activity coefficient (298.15 K): 0.617 ± 0.043
- activity coefficient (308.15 K): 0.63 ± 0.044
- activity coefficient (318.15 K): 0.641 ± 0.044
- activity coefficient (328.15 K): 0.653 ± 0.045
- activity coefficient (338.15 K): 0.663 ± 0.045
- activity coefficient (348.15 K): 0.673 ± 0.046
- activity coefficient (358.15 K): 0.683 ± 0.046
- activity coefficient (368.15 K): 0.693 ± 0.047

Compound: CCCCCCCCCC [decane] + CCCC[n+]1ccc(C)cc1.O=S(=O)([N-]S(=O)(=O)C(F)(F)F)C(F)(F)F
- activity coefficient (298.15 K): 54.7 ± 3.7
- activity coefficient (308.15 K): 49.3 ± 3.4
- activity coefficient (318.15 K): 45 ± 3.1
- activity coefficient (328.15 K): 41.1 ± 2.8
- activity coefficient (338.15 K): 37.6 ± 2.6
- activity coefficient (348.15 K): 34.6 ± 2.4
- activity coefficient (358.15 K): 31.9 ± 2.2
- activity coefficient (368.15 K): 29.7 ± 2

Compound: CCc1ccccc1 [ethylbenzene] + CCCC[n+]1ccc(C)cc1.O=S(=O)([N-]S(=O)(=O)C(F)(F)F)C(F)(F)F
- activity coefficient (318.15 K): 1.45 ± 0.1
- activity coefficient (328.15 K): 1.48 ± 0.1
- activity coefficient (338.15 K): 1.5 ± 0.1
- activity coefficient (348.15 K): 1.52 ± 0.1
- activity coefficient (358.15 K): 1.54 ± 0.1
- activity coefficient (368.15 K): 1.56 ± 0.1

Compound: c1ccsc1 [thiophene] + CCCC[n+]1ccc(C)cc1.O=S(=O)([N-]S(=O)(=O)C(F)(F)F)C(F)(F)F
- activity coefficient (298.15 K): 0.609 ± 0.043
- activity coefficient (308.15 K): 0.624 ± 0.043
- activity coefficient (318.15 K): 0.637 ± 0.044
- activity coefficient (328.15 K): 0.649 ± 0.044
- activity coefficient (338.15 K): 0.661 ± 0.045
- activity coefficient (348.15 K): 0.672 ± 0.046
- activity coefficient (358.15 K): 0.683 ± 0.046
- activity coefficient (368.15 K): 0.694 ± 0.047

Compound: C#CCCCC [1-hexyne] + CCCC[n+]1ccc(C)cc1.O=S(=O)([N-]S(=O)(=O)C(F)(F)F)C(F)(F)F
- activity coefficient (298.15 K): 2.37 ± 0.16
- activity coefficient (308.15 K): 2.39 ± 0.16
- activity coefficient (318.15 K): 2.42 ± 0.16
- activity coefficient (328.15 K): 2.44 ± 0.17
- activity coefficient (338.15 K): 2.46 ± 0.17
- activity coefficient (348.15 K): 2.48 ± 0.17
- activity coefficient (358.15 K): 2.5 ± 0.17
- activity coefficient (368.15 K): 2.52 ± 0.17

Compound: c1ccccc1 [benzene] + CCCC[n+]1ccc(C)cc1.O=S(=O)([N-]S(=O)(=O)C(F)(F)F)C(F)(F)F
- activity coefficient (298.15 K): 0.683 ± 0.046
- activity coefficient (308.15 K): 0.702 ± 0.047
- activity coefficient (318.15 K): 0.719 ± 0.048
- activity coefficient (328.15 K): 0.735 ± 0.049
- activity coefficient (338.15 K): 0.75 ± 0.049
- activity coefficient (348.15 K): 0.767 ± 0.05
- activity coefficient (358.15 K): 0.781 ± 0.051
- activity coefficient (368.15 K): 0.795 ± 0.052

Compound: CCCCCCCCC [nonane] + CCCC[n+]1ccc(C)cc1.O=S(=O)([N-]S(=O)(=O)C(F)(F)F)C(F)(F)F
- activity coefficient (298.15 K): 38.9 ± 2.7
- activity coefficient (308.15 K): 35.5 ± 2.4
- activity coefficient (318.15 K): 32.3 ± 2.2
- activity coefficient (328.15 K): 29.8 ± 2
- activity coefficient (338.15 K): 27.6 ± 1.9
- activity coefficient (348.15 K): 25.6 ± 1.8
- activity coefficient (358.15 K): 23.8 ± 1.6
- activity coefficient (368.15 K): 22 ± 1.5

Compound: C=CCCC [1-pentene] + CCCC[n+]1ccc(C)cc1.O=S(=O)([N-]S(=O)(=O)C(F)(F)F)C(F)(F)F
- activity coefficient (298.15 K): 5.81 ± 0.4
- activity coefficient (308.15 K): 5.6 ± 0.38
- activity coefficient (318.15 K): 5.42 ± 0.37
- activity coefficient (328.15 K): 5.24 ± 0.36
- activity coefficient (338.15 K): 5.07 ± 0.35
- activity coefficient (348.15 K): 4.93 ± 0.34
- activity coefficient (358.15 K): 4.8 ± 0.33
- activity coefficient (368.15 K): 4.68 ± 0.32

Compound: C=CCCCC [hex-1-ene] + CCCC[n+]1ccc(C)cc1.O=S(=O)([N-]S(=O)(=O)C(F)(F)F)C(F)(F)F
- activity coefficient (298.15 K): 7.4 ± 0.5
- activity coefficient (308.15 K): 7.11 ± 0.48
- activity coefficient (318.15 K): 6.82 ± 0.47
- activity coefficient (328.15 K): 6.58 ± 0.45
- activity coefficient (338.15 K): 6.37 ± 0.43
- activity coefficient (348.15 K): 6.17 ± 0.42
- activity coefficient (358.15 K): 5.99 ± 0.41
- activity coefficient (368.15 K): 5.82 ± 0.4

Compound: CCCO [propan-1-ol] + CCCC[n+]1ccc(C)cc1.O=S(=O)([N-]S(=O)(=O)C(F)(F)F)C(F)(F)F
- activity coefficient (298.15 K): 2.28 ± 0.16
- activity coefficient (308.15 K): 2.04 ± 0.14
- activity coefficient (318.15 K): 1.84 ± 0.12
- activity coefficient (328.15 K): 1.67 ± 0.11
- activity coefficient (338.15 K): 1.53 ± 0.1
- activity coefficient (348.15 K): 1.41 ± 0.09
- activity coefficient (358.15 K): 1.3 ± 0.08
- activity coefficient (368.15 K): 1.2 ± 0.08

Compound: C1CCCCCCC1 [cyclooctane] + CCCC[n+]1ccc(C)cc1.O=S(=O)([N-]S(=O)(=O)C(F)(F)F)C(F)(F)F
- activity coefficient (298.15 K): 13.9 ± 1
- activity coefficient (308.15 K): 12.9 ± 0.9
- activity coefficient (318.15 K): 12 ± 0.8
- activity coefficient (328.15 K): 11.2 ± 0.8
- activity coefficient (338.15 K): 10.4 ± 0.7
- activity coefficient (348.15 K): 9.81 ± 0.67
- activity coefficient (358.15 K): 9.26 ± 0.63
- activity coefficient (368.15 K): 8.74 ± 0.6

Compound: C#CCCCCC [1-heptyne] + CCCC[n+]1ccc(C)cc1.O=S(=O)([N-]S(=O)(=O)C(F)(F)F)C(F)(F)F
- activity coefficient (298.15 K): 3.2 ± 0.22
- activity coefficient (308.15 K): 3.23 ± 0.22
- activity coefficient (318.15 K): 3.24 ± 0.22
- activity coefficient (328.15 K): 3.26 ± 0.22
- activity coefficient (338.15 K): 3.27 ± 0.22
- activity coefficient (348.15 K): 3.28 ± 0.22
- activity coefficient (358.15 K): 3.29 ± 0.22
- activity coefficient (368.15 K): 3.3 ± 0.22

Compound: CCCCCCC [heptane] + CCCC[n+]1ccc(C)cc1.O=S(=O)([N-]S(=O)(=O)C(F)(F)F)C(F)(F)F
- activity coefficient (298.15 K): 20.4 ± 1.4
- activity coefficient (308.15 K): 18.9 ± 1.3
- activity coefficient (318.15 K): 17.7 ± 1.2
- activity coefficient (328.15 K): 16.6 ± 1.1
- activity coefficient (338.15 K): 15.6 ± 1.1
- activity coefficient (348.15 K): 14.7 ± 1
- activity coefficient (358.15 K): 13.9 ± 1
- activity coefficient (368.15 K): 13.2 ± 0.9

Compound: CCCOCCC [dipropyl ether] + CCCC[n+]1ccc(C)cc1.O=S(=O)([N-]S(=O)(=O)C(F)(F)F)C(F)(F)F
- activity coefficient (298.15 K): 4.91 ± 0.33
- activity coefficient (308.15 K): 4.81 ± 0.33
- activity coefficient (318.15 K): 4.71 ± 0.32
- activity coefficient (328.15 K): 4.62 ± 0.31
- activity coefficient (338.15 K): 4.54 ± 0.31
- activity coefficient (348.15 K): 4.45 ± 0.3
- activity coefficient (358.15 K): 4.38 ± 0.3
- activity coefficient (368.15 K): 4.31 ± 0.29
